Counter-ions that a name gives are not always drawn.
Molecular target: T1, human GPR4 (Homo sapiens, UniProt P46093)
T1 construct: expressed in transfected cells
Assay: Cell-based assay for human GPR4 activity (pH-induced cAMP formation, HTRF)
Settings: HeLa cells stably expressing human GPR4, pH-induced cAMP formation
Experimental: a) Cell-Based Assay for Human GPR4 Activity
HeLa cells stably expressing human GPR4 were established by transfecting the cells with a construct containing the human GPR4 coding sequence. The cells were grown in DMEM/HAM's F12 medium supplemented with 10% fetal calf serum (FCS), 100 u/ml penicillin, 100 μg/ml streptomycin and 400 μg/ml G418 and 10 mM Hepes pH 8.0. pH-induced formation of cAMP was determined using the HTRF technology as provided by CisBio Inc. The cells were seeded in 384-well plates and cultured for 24 hours at 37° C., 5% CO2 before performing the assay. Medium was removed and 10 μl buffer A (HBS, 10 mM Hepes, pH 8, 2 mM IBMX) was added. For compound testing, buffer A with 2× concentrated compounds was used. Cells were incubated for 15 min at room temperature. 10 μl buffer B (HBS, 30 mM Hepes, specific pH) was added to reach the appropriate final pH for stimulation (see below) and incubation was continued for 15 min at room temperature. […] HBS: 130 mM NaCl, 0.9 mM NaH2PO4, 5.4 mM KCl, 0.8 mM MgSO4, CaCl2 1.8 mM, 25 mM glucose, 10-30 mM Hepes. Adjustment of HBS buffers: Bf A Bf B Final stimulation pH (1 volume buffer A+1 volume buffer B)
Compounds were diluted from fresh stock solutions at 10 mM in DMSO to 2 mM and then used for serial dilutions in DMSO.

T1 sequence (P46093 whole entry): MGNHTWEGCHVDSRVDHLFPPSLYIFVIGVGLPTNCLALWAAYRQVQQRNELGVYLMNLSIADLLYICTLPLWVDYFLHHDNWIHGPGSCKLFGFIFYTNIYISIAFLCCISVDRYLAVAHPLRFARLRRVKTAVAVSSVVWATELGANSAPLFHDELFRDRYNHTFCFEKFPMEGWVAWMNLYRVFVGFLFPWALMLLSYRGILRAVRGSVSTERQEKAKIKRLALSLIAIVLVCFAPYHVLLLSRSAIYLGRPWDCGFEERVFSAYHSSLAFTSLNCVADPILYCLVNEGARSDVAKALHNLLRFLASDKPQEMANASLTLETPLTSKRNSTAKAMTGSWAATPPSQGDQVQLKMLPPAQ

| Structure (SMILES) | IC50 [nM] |
| --- | --- |
| CCc1nc2c(C)cc(C)nc2n1Cc1ccc(CCCN2CCN(C(C)C)C(CC)C2)cc1 (stereo not drawn) [Example 25, 2-Ethyl-3-{4-[3-(3-ethyl-4-isopropyl-piperazin-1-yl)-propyl]-benzyl}-5,7-dimethyl-3H-imidazo[4,5-b]pyridine] | 364 |
| Cc1cc(C)c2nc(C(C)C)n(Cc3ccc(/C=C/CN4CCC(N5CCCCC5)CC4)cc3)c2n1 [Example 83, 1′-{(E)-3-[4-(2-Isopropyl-5,7-dimethyl-imidazo[4,5-b]pyridin-3-ylmethyl)-phenyl]-allyl}-[1,4′]bipiperidinyl dihydrochloride] | 294 |
| Cc1cc(C)c2nc(C)n(Cc3ccc(/C=C/CN4CCC(N5CCCCC5)CC4)cc3)c2n1 [Example 30, 1′-{(E)-3-[4-(2,5,7-Trimethyl-imidazo[4,5-b]pyridin-3-ylmethyl)-phenyl]-allyl}-[1,4′]bipiperidinyl] | 94 |
| Cc1cc(C)c2nc(C(F)(F)F)n(Cc3ccc(/C=C/CN4CCN(C(C)(C)C)CC4)cc3)c2n1 [Example 92, 3-{4-[(E)-3-(4-tert-Butyl-piperazin-1-yl)-propenyl]-benzyl}-5,7-dimethyl-2-trifluoromethyl-3H-imidazo[4,5-b]pyridine] | 30 |
| CCc1nc2c(C)cc(C)nc2n1Cc1ccc(CCCN2CCN(C3CCCCC3)CC2)cc1 [Example 19, 3-{4-[3-(4-Cyclohexyl-piperazin-1-yl)-propyl]-benzyl}-2-ethyl-5,7-dimethyl-3H-imidazo[4,5-b]pyridine dihydrochloride] | 182 |
| Cc1cc(C)c2nc(C3CC3)n(Cc3ccc(/C=C/CN4CCN(C(C)C)CC4)cc3)c2n1 [Example 84, 2-Cyclopropyl-3-{4-[(E)-3-(4-isopropyl-piperazin-1-yl)-propenyl]-benzyl}-5,7-dimethyl-3H-imidazo[4,5-b]pyridine dihydrochloride] | 181 |
| CCc1nc2c(C)cc(C)nc2n1Cc1ccc(CCCN2CCN(C(C)CC)CC2)cc1 (stereo not drawn) [Example 11, 3-{4-[3-(4-sec-Butyl-piperazin-1-yl)-propyl]-benzyl}-2-ethyl-5,7-dimethyl-3H-imidazo[4,5-b]pyridine] | 479 |
| CCc1nc2c(C)cc(C)nc2n1Cc1ccc(C(=O)NCCCCN2CCCCCC2)cc1 [Example 100, N-(4-Azepan-1-yl-butyl)-4-(2-ethyl-5,7-dimethyl-imidazo[4,5-b]pyridin-3-ylmethyl)-benzamide] | 495 |
| CCCN1CCN(CCCc2ccc(Cn3c(CC)nc4c(C)cc(C)nc43)cc2)CC1 [Example 7, 2-Ethyl-5,7-dimethyl-3-{4-[3-(4-propyl-piperazin-1-yl)-propyl]-benzyl}-3H-imidazo[4,5-b]pyridine] | 39 |
| CCc1nc2c(C)cc(C)nc2n1Cc1ccc(CCCN2CCN(CCC(C)C)CC2)cc1 [Example 16, 2-Ethyl-5,7-dimethyl-3-(4-{3-[4-(3-methyl-butyl)-piperazin-1-yl]-propyl}-benzyl)-3H-imidazo[4,5-b]pyridine] | 283 |
| CCc1nc2c(C)cc(C)nc2n1Cc1ccc(NC(=O)CCCCN2CCCC2)cc1 [Example 101, 5-Pyrrolidin-1-yl-pentanoic acid [4-(2-ethyl-5,7-dimethyl-imidazo[4,5-b]pyridin-3-ylmethyl)-phenyl]-amide] | 364 |
| CCCCc1nc2c(C)cc(C)nc2n1Cc1ccc(/C=C/CN2CCC(N3CCCCC3)CC2)cc1 [Example 86, 1′-{(E)-3-[4-(2-Butyl-5,7-dimethyl-imidazo[4,5-b]pyridin-3-ylmethyl)-phenyl]-allyl}-[1,4′]bipiperidine dihydrochloride] | 481 |
| CCc1nc2c(C)cc(C)nc2n1Cc1ccc(CCCN2CCN(CCN(C)C)CC2)cc1 [Example 21, [2-(4-{3-[4-(2-Ethyl-5,7-dimethyl-imidazo[4,5-b]pyridin-3-ylmethyl)-phenyl]-propyl}-piperazin-1-yl)-ethyl]-dimethyl-amine dihydrochloride] | 345 |
| CCc1nc2c(C)cc(C)nc2n1Cc1ccc(/C=C/CN2CCN(CCN3CCOCC3)CC2)cc1 [Example 66, 2-Ethyl-5,7-dimethyl-3-(4-{(E)-3-[4-(2-morpholin-4-yl-ethyl)-piperazin-1-yl]-propenyl}-benzyl)-3H-imidazo[4,5-b]pyridine trihydrochloride] | 222 |
| CCCc1nc2c(C)cc(C)nc2n1Cc1ccc(/C=C/CN2CCC(N3CCCCC3)CC2)cc1 [Example 82, 1′-{(E)-3-[4-(5,7-Dimethyl-2-propyl-imidazo[4,5-b]pyridin-3-ylmethyl)-phenyl]-allyl}-[1,4′]bipiperidine dihydrochloride] | 455 |
| Cc1cc(C)c2nc(C(F)(F)F)n(Cc3ccc(/C=C/CN4CCC(N5CCOCC5)CC4)cc3)c2n1 [Example 89, 5,7-Dimethyl-3-{4-[(E)-3-(4-morpholin-4-yl-piperidin-1-yl)-propenyl]-benzyl}-2-trifluoromethyl-3H-imidazo[4,5-b]pyridine dihydrochloride] | 182 |

Results, then the compound that gave them:

| IC50 [nM] | Structure (SMILES) |
| --- | --- |
| 463 | CCc1nc2c(C)cc(C)nc2n1Cc1ccc(/C=C/CN2CCN(CC(C)C)CC2)cc1 [Example 50, 2-Ethyl-3-{4-[(E)-3-(4-isobutyl-piperazin-1-yl)-propenyl]-benzyl}-5,7-dimethyl-3H-imidazo[4,5-b]pyridine dihydrochloride] |
| 140 | CCc1nc2c(C)cc(C)nc2n1Cc1ccc(/C=C/CN2CCN(CCC(C)C)CC2)cc1 [Example 52, 2-Ethyl-5,7-dimethyl-3-(4-{(E)-3-[4-(3-methyl-butyl)-piperazin-1-yl]-propenyl}-benzyl)-3H-imidazo[4,5-b]pyridine dihydrochloride] |
| 477 | CCc1nc2c(C)cc(C)nc2n1Cc1ccc(/C=C/CN2CCC(O)CC2)cc1 [Example 36, 1-{(E)-3-[4-(2-Ethyl-5,7-dimethyl-imidazo[4,5-b]pyridin-3-ylmethyl)-phenyl]-allyl}-piperidin-4-ol] |
| 98 | CCc1nc2c(C)cc(C)nc2n1Cc1ccc(/C=C/CCN2CCN(C(C)C)CC2)cc1 [Example 106, 2-Ethyl-3-{4-[(E)-4-(4-isopropyl-piperazin-1-yl)-but-1-enyl]-benzyl}-5,7-dimethyl-3H-imidazo[4,5-b]pyridine dihydrochloride] |
| 194 | CCCCN1CCN(C/C=C/c2ccc(Cn3c(CC)nc4c(C)cc(C)nc43)cc2)CC1 [Example 48, 3-{4-[(E)-3-(4-Butyl-piperazin-1-yl)-propenyl]-benzyl}-2-ethyl-5,7-dimethyl-3H-imidazo[4,5-b]pyridine dihydrochloride] |
| 144 | CCc1nc2c(C)cc(C)nc2n1Cc1ccc(/C=C/CN2CCC(N(CC)CC)CC2)cc1 [Example 31, Diethyl-(1-{(E)-3-[4-(2-ethyl-5,7-dimethyl-imidazo[4,5-b]pyridin-3-ylmethyl)-phenyl]-allyl}-piperidin-4-yl)-amine dihydrochloride] |
| 370 | CCc1nc2c(C)cc(C)nc2n1Cc1ccc(/C=C/CCn2ccnc2)cc1 [Example 109] |
| 323 | CCc1nc2c(C)cc(C)nc2n1Cc1ccc(/C=C/CN2C[C@H]3C[C@@H]2CN3CC)cc1 [Example 74, 2-Ethyl-3-{4-[(E)-3-((1R,4R)-5-ethyl-2,5-diaza-bicyclo[2.2.1]hept-2-yl)-propenyl]-benzyl}-5,7-dimethyl-3H-imidazo[4,5-b]pyridine] |
| 100 | CCc1nc2c(C)cc(C)nc2n1Cc1ccc(/C=C/CN2CCN(C(C)CC)CC2)cc1 (stereo not drawn) [Example 49, 3-{4-[(E)-3-(4-sec-Butyl-piperazin-1-yl)-propenyl]-benzyl}-2-ethyl-5,7-dimethyl-3H-imidazo[4,5-b]pyridine] |
| 535 | CCc1nc2c(C)cc(C)nc2n1Cc1ccc(/C=C/CN2CCN(CCCF)CC2)cc1 [Example 68, 2-Ethyl-3-(4-{(E)-3-[4-(3-fluoro-propyl)-piperazin-1-yl]-propenyl}-benzyl)-5,7-dimethyl-3H-imidazo[4,5-b]pyridine] |
| 201 | CCc1nc2c(C)cc(C)nc2n1Cc1ccc(/C=C/CN2CCN(CC)C(C)C2)cc1 (stereo not drawn) [Example 69, 2-Ethyl-3-{4-[(E)-3-(4ethyl-3-methyl-piperazin-1-yl)-propenyl]-benzyl}-5,7-dimethyl-3H-imidazo[4,5-b]pyridine dihydrochloride] |
| 194 | CCc1nc2c(C)cc(C)nc2n1Cc1ccc(/C=C/CN2CCN(C(CC)CC)CC2)cc1 [Example 53, 2-Ethyl-3-(4-{(E)-3-[4-(1-ethyl-propyl)-piperazin-1-yl]-propenyl}-benzyl)-5,7-dimethyl-3H-imidazo[4,5-b]pyridine dihydrochloride] |
| 60 | CCc1nc2c(C)cc(C)nc2n1Cc1ccc(/C=C/CCN2CCN(C(C)(C)C)CC2)cc1 [Example 104, 3-{4-[(E)-4-(4-tert-Butyl-piperazin-1-yl)-but-1-enyl]-benzyl}-2-ethyl-5,7-dimethyl-3H-imidazo[4,5-b]pyridine dihydrochloride] |
| 452 | CCc1nc2c(C)cc(C)nc2n1Cc1ccc(/C=C/CN2CCN(C(C)C)C(CC)C2)cc1 (stereo not drawn) [Example 72, 2-Ethyl-3-{4-[(E)-3-(3-ethyl-4-isopropyl-piperazin-1-yl)-propenyl]-benzyl}-5,7-dimethyl-3H-imidazo[4,5-b]pyridine dihydrochloride] |

Source: patent US20090291942A1, “IMIDAZO PYRIDINE DERIVATIVES” (priority 2008, published 2009)
